Data set [1] concerns HT1080 cells. Put plainly: Cell cycle analysis by propidium iodide flow cytometry in HT1080 cells (S-phase accumulation, Table 24). Type of data set: cell-based, human. Conditions: HT1080, normoxic, 18 hours. The method, then: Experimental Design. […] After treatment, cells were trypsinized, and stained with propidium iodide (PI) dye to measure DNA content of individual cells by flow cytometry. Output comprised histograms showing relative DNA content in 10,000 cells.
While compounds which cause greater than 20% of the cells to accumulate in S-phase at 100 nM are considered active, a larger percentage of cells may be accumulated in S-phase at lower doses depending on the Compound, as shown in FIG. 12 for example.
A general note: In flow cytometry, cells or beads pass a laser one at a time.

The test system of data set [2] is VEGF secreting cell lines. Put plainly: Cell cycle effects in several VEGF secreting human tumor cell lines (PI flow cytometry, Table 25). Type of data set: cell-based. To be noted: all of the tested tumor types; 10 nM or 100 nM, 18 hours. The method, then: Experimental Design. Several VEGF secreting cell lines were assayed for cell cycle effects. […] At the completion of treatment, cells were harvested and cellular DNA content was analyzed via PI staining and flow cytometry (as described in Section 9.3.1.1).

Data set [3] has as its system HT1080 cells. Put plainly: Kinetics of S-phase transit by BrdU incorporation in HT1080 cells. The format is cell-based, human. To be noted: HT1080, 18-hour treatment. The method, then: Experimental Design. HT 1080 cells are exposed to BrdU (bromodeoxyuridine, a synthetic nucleoside that is an analogue of thymidine and is incorporated into DNA during the S phase of cell division) (FITC BrdU Flow Kit, BD Pharmingen catalog #552598). Cells are grown and treated as described in Section 9.3.1.3 above with the exception that one hour prior to harvesting by trypsinization, BrdU (final concentration 1 μM) is added to each culture for 1 hour. Cells actively replicating DNA during this brief time incorporate the BrdU into the DNA, which can then be quantitated. BrdU content is quantitated with using the FITC BrdU Flow Kit as instructed by the manufacturer. The process includes fixation (paraformaldehyde) and DNA staining with 7-AAD (7-amino-actinomycin D) followed by incubation with a fluoro-tagged anti-BrdU antibody that specifically recognizes BrdU incorporated into DNA. Dual channel FACS analysis permits assessment of both the DNA content of individual cells and the rate of transit across the S-phase, which is assessed based upon BrdU incorporation over the one hour treatment period.
(In general: Incorporation of labelled thymidine or its analogues reports DNA synthesis.)

In another data set the target is T1, CYP3A4 (Homo sapiens, UniProt P08684).
T1 construct: host or cells: human hepatic microsomes or human recombinant isoenzymes
T1 sequence (P08684 whole entry): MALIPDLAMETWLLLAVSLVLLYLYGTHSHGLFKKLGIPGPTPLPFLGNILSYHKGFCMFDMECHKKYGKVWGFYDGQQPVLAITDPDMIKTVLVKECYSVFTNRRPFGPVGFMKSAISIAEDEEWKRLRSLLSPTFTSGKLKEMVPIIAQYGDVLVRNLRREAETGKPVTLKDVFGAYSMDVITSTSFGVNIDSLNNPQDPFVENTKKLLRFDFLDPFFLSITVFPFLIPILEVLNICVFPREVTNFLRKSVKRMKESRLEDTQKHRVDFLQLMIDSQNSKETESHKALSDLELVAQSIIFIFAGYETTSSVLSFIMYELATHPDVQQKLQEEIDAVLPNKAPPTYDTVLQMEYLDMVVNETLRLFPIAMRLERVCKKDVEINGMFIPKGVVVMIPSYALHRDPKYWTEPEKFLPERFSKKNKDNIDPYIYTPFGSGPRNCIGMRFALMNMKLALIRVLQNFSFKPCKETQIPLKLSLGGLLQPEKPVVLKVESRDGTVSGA
Put plainly: CYP inhibition in human hepatic microsomes or recombinant isoenzymes: CYP3A4. Type of data set: in vitro ADME. An excerpt: (§1) It is possible that in certain clinical trial subjects, such agents may need to be adjusted for dosing or replaced by alternative agents that are not metabolized by CYP2D6, particularly when such agents may have a low therapeutic index.

The target in a further data set is T2, CYPC19 (Homo sapiens, UniProt P33261).
T2 construct: host or cells: human hepatic microsomes or human recombinant isoenzymes
T2 sequence (P33261 whole entry): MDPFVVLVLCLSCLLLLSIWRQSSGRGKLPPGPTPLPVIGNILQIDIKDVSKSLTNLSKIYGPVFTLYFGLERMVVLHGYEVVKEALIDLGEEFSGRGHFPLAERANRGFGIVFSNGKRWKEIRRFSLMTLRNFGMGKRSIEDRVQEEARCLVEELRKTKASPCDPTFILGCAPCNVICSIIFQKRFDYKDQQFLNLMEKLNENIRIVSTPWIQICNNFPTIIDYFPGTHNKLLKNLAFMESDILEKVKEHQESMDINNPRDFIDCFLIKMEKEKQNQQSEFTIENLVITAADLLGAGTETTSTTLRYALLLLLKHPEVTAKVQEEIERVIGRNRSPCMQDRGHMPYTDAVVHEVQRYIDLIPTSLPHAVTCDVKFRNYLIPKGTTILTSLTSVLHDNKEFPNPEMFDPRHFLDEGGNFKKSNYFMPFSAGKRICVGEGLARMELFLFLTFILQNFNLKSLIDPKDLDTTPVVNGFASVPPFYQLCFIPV
In words: CYP inhibition in human hepatic microsomes or recombinant isoenzymes: CYPC19. The format is in vitro ADME.
Excerpt: as §1

Data set [4] can be described thus: 28-day oral toxicity study in rats with 14-day recovery. Type of data set: in vivo. How it is done:
A battery of genotoxicity studies was also performed. […] The L23 vehicle was used.
Exposures were maximal at 120 mg/kg/day.

The next data set relates to physiological VEGF-A. Put plainly: Phase 1 study in healthy volunteers: plasma and serum physiological VEGF-A concentrations. Type of data set: in vivo, human. To be noted: any dose tested. The method, then:
The study was performed under the oversight of the French health authorities. The study was not performed under an IND.
Plasma VEGF Concentrations: Plasma and serum VEGF concentrations and concentration changes from baseline were presented descriptively.

The next data set has as its system Kaposi Sarcoma lesions. Put plainly: Patients with Kaposi Sarcoma: cutaneous lesion size and quantity. The format is in vivo, human. How it is done:
Subjects with HIV-associated KS may receive continuous daily treatment with a Compound being administered BID for up to 48 weeks. […] Response rate of HIV-associated KS to a Compound is an indicator of efficacy.
Compound Administration: Subjects may be administered a Compound at the following dose levels: 40 mg/dose BID, 80 mg/dose BID, and 100 mg/dose BID. A Compound may be orally administered each day on a BID schedule at approximately the same times each day. Ideally, doses should be taken at ˜12-hour intervals (e.g., at ˜7:00 AM and at ˜7:00 PM). If convenient for the subject, the drug may be taken during or within ˜30 minutes after a meal; however, administration with food is not required. Subjects may continue receiving repeated 4-week cycles of a Compound indefinitely or until termination. Compound administration may be terminated because of, e.g., tumor progression or other progression of KS, or a dose-limiting toxicity.
A medical history should be done within 21 days of administration of a Compound and may be done during the treatment course with a Compound (e.g., the first day of every 4 week cycle) and following such treatment. The medical history may include the following information: • 1. Previous HIV-related and non-HIV related diagnoses. • 2. […] For subjects with <50 total skin and oral lesions, all lesions should be evaluated for changes in number and characteristics. […]

A value given as a limit tells only on which side of the number the result lay.

As a reminder, the NOAEL is the highest tested level that showed no adverse finding. In the case of `COc1ccc(C2c3[nH]c4ccc(Cl)cc4c3CCN2C(=O)Oc2ccc(Cl)cc2)cc1` (racemic) [Compound #10], the “concentration from which an accumulation of cells in S phase can be observed” value in the data set with HT1080 cells [1] is listed as not below 1 nM. The “cell cycle distribution, DNA content (in words)” value in the data set with HT1080 cells [1] (Compound #10 0.3 nM to 100 nM, Compound 1205 10 nM) is “induced a redistribution of the cycling characteristics of the cell population”. Also, in data set [2], the “cell cycle delay versus inhibition of VEGF production (in words)” value is reported as “coincident with the inhibition of VEGF production”. For the same compound, the “BrdU incorporation by individual cells during the one-hour period vs DMSO control (in words)” value in the data set on HT1080 cells [3] is listed as “incorporated less BrdU”. Moreover, the “percentage of cells residing in S-phase (in words)” value with HT1080 cells [3] (increasing doses) was “net increase”. The “inhibition of CYP3A4 (in words)” value at CYP3A4 was “No meaningful inhibition”. The “inhibition of CYPC19 (in words)” value at CYPC19 is listed as “No meaningful inhibition”. Besides, the “mean PT and aPTT” value in data set [4] (40 and 120 mg/kg/day, males but not females, 28-day study) was “reversible increases”. This compound also returned an NOAEL at 28 days in data set [4] (both sexes, Sprague Dawley, rat, in vivo, rats, oral gavage) of 12 mg/kg/day. Further, the “dose at which exposures were maximal” value in data set [4] (rats, 12, 40, and 120 mg/kg/day, 28 days) is 120 mg/kg/day. Besides, in the data set on physiological VEGF-A, the “plasma or serum physiological VEGF-A concentrations” value is “No significant alterations”. The “lesion size (in words)” value in the data set on Kaposi Sarcoma lesions (patients with Kaposi Sarcoma (FIG. 34)) was “reduced”. Also, the “reduction in the number of raised lesions” value in the data set with Kaposi Sarcoma lesions (patients with Kaposi Sarcoma labeled PR (FIG. 34)) is not below 50%.
